Measured values taken from patent US9376442B2, “Methylpyrrolopyrimidinecarboxamides” (Takeda GmbH, priority 2009, dated 2016).

These compounds were tested against T1, PDE5A1 (Homo sapiens, UniProt O76074) (assay: Inhibition of type 5 phosphodiesterase (PDE5) activity, modified SPA test with human platelet lysate). Conditions: 0.5 μM cGMP, read-out: PDE5A1 inhibitory values [measured as −log IC50 (mol/l)] (converted).
T1 construct: from tissue; host or cells: human platelets from fresh donor blood (10,000 x g supernatant of sonicated lysate)
Format: biochemical
Method in brief: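 Scintillation proximity assay with [3H]cGMP tracer at 0.5 μM total cGMP, stopped after 15 min with beads containing IBMX. PDE3 and PDE2 activities suppressed with motapizone (1 μM) and a PDE2 inhibitor (10 nM). Human platelet supernatant served as the enzyme, with compound preincubated 5 min at 37° C; IC50 values from concentration-effect curves.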

Compound	IC50 [nM]
Cc1[nH]c2c(-c3ccc(F)cc3OCC3CC3)ncnc2c1C(=O)N[C@H]1CC[C@@H](NC(=O)CO)CC1 [Example F15, 4-[2-(cyclopropylmethoxy)-4-fluorophenyl]-N-[cis-4-(glycoloylamino)cyclohexyl]-6-methyl-5H-pyrrolo[3,2-d]pyrimidine-7-carboxamide]	< 1
CC(=O)N1CC[C@@H](NC(=O)c2c(C)[nH]c3c(-c4ccc(F)cc4OCC4CC4)ncnc23)C1 [Example E28, N-[(3R)-1-acetylpyrrolidin-3-yl]-4-[2-(cyclopropylmethoxy)-4-fluorophenyl]-6-methyl-5H-pyrrolo[3,2-d]pyrimidine-7-carboxamide]	1 to 10
COCC(=O)N1CC[C@@H](NC(=O)c2c(C)[nH]c3c(-c4cc(OC)ccc4OCC4CC4)ncnc23)[C@H](O)C1 (relative stereo) [Example E80, 4-[2-(Cyclopropylmethoxy)-5-methoxyphenyl]-N-[(3R*,4R*)-3-hydroxy-1-(methoxyacetyl)piperidin-4-yl]-6-methyl-5H-pyrrolo[3,2-d]pyrimidine-7-carboxamide]	1 to 10
CCC(=O)N1CC[C@@H](NC(=O)c2c(C)[nH]c3c(-c4ccc(F)cc4OCC4CC4)ncnc23)C1 [Example E29, 4-[2-(Cyclopropylmethoxy)-4-fluorophenyl]-6-methyl-N-[(3R)-1-propanoylpyrrolidin-3-yl]-5H-pyrrolo[3,2-d]pyrimidine-7-carboxamide]	< 1
COc1ccc(OCC2CC2)c(-c2ncnc3c(C(=O)N[C@@H]4CCN(C(C)=O)C4)c(C)[nH]c23)c1 [Example E75, N-[(3R)-1-acetylpyrrolidin-3-yl]-4-[2-(cyclopropylmethoxy)-5-methoxyphenyl]-6-methyl-5H-pyrrolo[3,2-d]pyrimidine-7-carboxamide]	< 1
CCC(=O)N1CC[C@@H](NC(=O)c2c(C)[nH]c3c(-c4cc(OC)c(F)cc4OCC4CC4)ncnc23)C1 [Example E180, 4-[2-(Cyclopropylmethoxy)-4-fluoro-5-methoxyphenyl]-6-methyl-N-[(3R)-1-propionylpyrrolidin-3-yl]-5H-pyrrolo[3,2-d]pyrimidine-7-carboxamide]	< 1
COCC(=O)N1C[C@@H](O)[C@H](NC(=O)c2c(C)[nH]c3c(-c4ccc(F)cc4OCC4CC4)ncnc23)C1 (relative stereo) [Example E33, 4-[2-(Cyclopropylmethoxy)-4-fluorophenyl]-N-[(3R*,4R*)-4-hydroxy-1-(methoxyacetyl)pyrrolidin-3-yl]-6-methyl-5H-pyrrolo[3,2-d]pyrimidine-7-carboxamide]	1 to 10
CCC(=O)N1CC[C@H](O)[C@@H](NC(=O)c2c(C)[nH]c3c(-c4cc(OC)c(F)cc4OCC4CC4)ncnc23)C1 (relative stereo) [Example E117, 4-[2-(Cyclopropylmethoxy)-4-fluoro-5-methoxyphenyl]-N-[(3S*,4S*)-4-hydroxy-1-propionylpiperidin-3-yl]-6-methyl-5H-pyrrolo[3,2-d]pyrimidine-7-carboxamide]	< 1
CCOc1ccc(F)cc1-c1ncnc2c(C(=O)NC3CCN(C(=O)CO)CC3)c(C)[nH]c12 [Example F32]	1 to 10
CC(=O)c1ccc(OCC2CC2)c(-c2ncnc3c(C(=O)NC4CCN(C(C)=O)CC4)c(C)[nH]c23)c1 [Example E163, 4-[5-Acetyl-2-(cyclopropylmethoxy)phenyl-]-N-(1-acetylpiperidin-4-yl)-6-methyl-5H-pyrrolo[3,2-d]pyrimidine-7-carboxamide]	< 1
COc1ccc(OCC2CC2)c(-c2ncnc3c(C(=O)N[C@@H]4CCN(C(=O)[C@H](C)O)C4)c(C)[nH]c23)c1 [Example F48, 4-[2-(cyclopropylmethoxy)-5-methoxyphenyl]-N-{(3R)-1-[(2S)-2-hydroxypropanoyl]pyrrolidin-3-yl}-6-methyl-5H-pyrrolo[3,2-d]pyrimidine-7-carboxamide]	< 1
COCC(=O)N1C[C@@H](O)[C@H](NC(=O)c2c(C)[nH]c3c(-c4c(OCC5CC5)ccc5c4OCO5)ncnc23)C1 (relative stereo) [Example E18, 4-[5-(Cyclopropylmethoxy)-1,3-benzodioxol-4-yl]-N-[(3R*,4R*)-4-hydroxy-1-(methoxyacetyl)pyrrolidin-3-yl]-6-methyl-5H-pyrrolo[3,2-d]pyrimidine-7-carboxamide]	< 1
COCC(=O)N[C@H]1CC[C@@H](NC(=O)c2c(C)[nH]c3c(-c4cc(F)c(OC)cc4OCC4CC4)ncnc23)CC1 [Example E140, 4-[2-(Cyclopropylmethoxy)-5-fluoro-4-methoxyphenyl]-N-{cis-4-[(methoxyacetyl)amino]cyclohexyl}-6-methyl-5H-pyrrolo[3,2-d]pyrimidine-7-carboxamide]	< 1
CC(=O)N[C@H]1CC[C@H](NC(=O)c2c(C)[nH]c3c(-c4cc(C)c(F)cc4OCC4CC4)ncnc23)CC1 [Example E122, N-[trans-4-(Acetylamino)cyclohexyl]-4-[2-(cyclopropylmethoxy)-4-fluoro-5-methylphenyl]-6-methyl-5H-pyrrolo[3,2-d]pyrimidine-7-carboxamide]	< 1
CC(=O)N1CC[C@@H](NC(=O)c2c(C)[nH]c3c(-c4c(OCC5CC5)ccc5c4OCO5)ncnc23)C1 [Example E13, N-[(3R)-1-acetylpyrrolidin-3-yl]-4-[5-(cyclopropylmethoxy)-1,3-benzodioxol-4-yl]-6-methyl-5H-pyrrolo[3,2-d]pyrimidine-7-carboxamide]	< 1
COc1cc(OCC2CC2)c(-c2ncnc3c(C(=O)N[C@H]4CC[C@H](NC(=O)CO)CC4)c(C)[nH]c23)cc1F [Example F85, 4-[2-(Cyclopropylmethoxy)-5-fluoro-4-methoxyphenyl]-N-[trans-4-(glycoloylamino)cyclohexyl]-6-methyl-5H-pyrrolo[3,2-d]pyrimidine-7-carboxamide]	< 1
CCOC(=O)N1CCC(NC(=O)c2c(C)[nH]c3c(-c4cc(F)c(OC)cc4OCC4CC4)ncnc23)CC1 [Example E134, Ethyl 4-[({4-[2-(cyclopropylmethoxy)-5-fluoro-4-methoxyphenyl]-6-methyl-5H-pyrrolo[3,2-d]pyrimidin-7-yl}carbonyl)amino]piperidine-1-carboxylate]	< 1
COCC(=O)N1CC[C@@H](NC(=O)c2c(C)[nH]c3c(-c4cc(F)ccc4OCC4CC4)ncnc23)[C@H](O)C1 (relative stereo) [Example E51, 4-[2-(Cyclopropylmethoxy)-5-fluorophenyl]-N-[(3R*,4R*)-3-hydroxy-1-(methoxyacetyl)piperidin-4-yl]-6-methyl-5H-pyrrolo[3,2-d]pyrimidine-7-carboxamide]	1 to 10
COc1ccc(OCC2CC2)c(-c2ncnc3c(C(=O)N[C@@H]4CN(C(=O)CO)C[C@H]4O)c(C)[nH]c23)c1 (relative stereo) [Example F119, 4-[2-(Cyclopropylmethoxy)-5-methoxyphenyl]-N-[(3R*,4R*)-1-glycoloyl-4-hydroxypyrrolidin-3-yl]-6-methyl-5H-pyrrolo[3,2-d]pyrimidine-7-carboxamide]	1 to 10
CCOC(=O)N1CC[C@@H](NC(=O)c2c(C)[nH]c3c(-c4cc(OC)c(F)cc4OCC4CC4)ncnc23)C1 [Example E182, Ethyl (3R)-3-[({4-[2-(cyclopropylmethoxy)-4-fluoro-5-methoxyphenyl]-6-methyl-5H-pyrrolo[3,2-d]pyrimidin-7-yl}carbonyl)amino]pyrrolidine-1-carboxylate]	< 1
COc1cc(-c2ncnc3c(C(=O)N[C@H]4CC[C@H](NC(=O)CO)CC4)c(C)[nH]c23)c(OCC2CC2)cc1F [Example F67, 4-[2-(Cyclopropylmethoxy)-4-fluoro-5-methoxyphenyl]-N-[trans-4-(glycoloylamino)cyclohexyl]-6-methyl-5H-pyrrolo[3,2-d]pyrimidine-7-carboxamide]	< 1
CCc1ccc(OCC2CC2)c(-c2ncnc3c(C(=O)NC4CN(C(=O)C(C)O)CC4O)c(C)[nH]c23)c1 (mixture of isomers) [Example F98, Diastereomeric mixture of 4-[2-(cyclopropylmethoxy)-5-ethylphenyl]-N{(3R,4R)-4-hydroxy-1-[(2S)-2-hydroxypropanoyl]pyrrolidin-3-yl}-6-methyl-5H-pyrrolo[3,2-d]pyrimidine-7-carboxamide and 4-[2-(cyclopropylmethoxy)-5-ethylphenyl]-N-{(3S,4S)-4-hydroxy-1-[(2S)-2-hydroxypropanoyl]pyrrolidin-3-yl}-6-methyl-5H-pyrrolo[3,2-d]pyrimidine-7-carboxamide]	1 to 10
COCC(=O)N1C[C@@H](O)[C@H](NC(=O)c2c(C)[nH]c3c(-c4cc(F)c(OC)cc4OCC4CC4)ncnc23)C1 (relative stereo) [Example E191, 4-[2-(Cyclopropylmethoxy)-5-fluoro-4-methoxyphenyl]-N-[(3R*,4R*)-4-hydroxy-1-(methoxyacetyl)pyrrolidin-3-yl]-6-methyl-5H-pyrrolo[3,2-d]pyrimidine-7-carboxamide]	< 1
CCOC(=O)N[C@H]1CC[C@H](NC(=O)c2c(C)[nH]c3c(-c4cc(OC)c(F)cc4OCC4CC4)ncnc23)CC1 [Example E109, Ethyl {trans-4-[({4-[2-(cyclopropylmethoxy)-4-fluoro-5-methoxyphenyl]-6-methyl-5H-pyrrolo[3,2-d]pyrimidin-7-yl}carbonyl)amino]cyclohexyl}carbamate]	< 1
Cc1[nH]c2c(-c3ccc(F)cc3OCC3CC3)ncnc2c1C(=O)NC1CCN(C(=O)CO)CC1 [Example F11, 4-[2-(Cyclopropylmethoxy)-4-fluorophenyl]-N-(1-glycoloylpiperidin-4-yl)-6-methyl-5H-pyrrolo[3,2-d]pyrimidine-7-carboxamide]	< 1
